Article PMC6715681, “A high-throughput screen to identify novel synthetic lethal compounds for the treatment of E-cadherin-deficient cells” (Scientific Reports, 2019)

System: MCF10A WT and MCF10A CDH1^−/− cells
Test: Single-point confirmation screen (10 μM, CTB, 384-well), viability differential between isogenic lines
Format: cell-based, human
Details: averaged between three biological replicates, Supplementary Table 2
Description: In the single-point confirmation screen, compounds that preferentially harm MCF10A CDH1^−/− cells compared to the wild-type cells were now identified. Three biological replicates were performed for each of the isogenic cell lines at a single-point (10 μM) in 384-well plates. All assay plates had acceptable Z’ values above 0.4 and 23 out of 48 plates had values above 0.6. The POC R^2 correlation between the three biological replicates for the two isogenic cell lines were all above 0.8 (data not shown). A cell viability differential of ‘MCF10A WT POC – MCF10A CDH1^−/− POC’ was used to select hits. An arbitrary threshold for the mean differential of >8.5% was chosen in order to maximize the number of hits being screened in the subsequent stages and to reduce false negatives.
To incorporate a measure of the variability between replicates of the screen into the hit selection process, a further requirement was included of a minimum of 2/3 biological replicates having viability differentials >8.5%. This removed a further 52 compounds shown in blue with only one out of three biological replicates crossing the Y = X-8.5 line independent of the mean. In total, 256 compounds were above the hit selection threshold, thereby preferentially killing E-cadherin negative cells. The mean POC differential of the 256 hits was 17.6% +/− 7.1 (+/−SD), with the highest being 48% for SLEC-1 (Synthetic Lethal E-Cadherin compound 1). […] The resulting 256 SL compounds were then assayed in an 11-point screen for EC50 determination.
MCF10A WT and MCF10A CDH1^−/− cells were seeded into Corning black walled, clear bottom 384-well plates (assay plates) using a multidrop 384 reagent dispenser (Thermo Fisher Scientific) and a total volume of 50 μL per well.
As we have shown MCF10A CDH1^−/− cells have a prolonged lag to log phase growth of around 24 hours, in order to achieve a similar confluence at 72 hours post seeding MCF10A WT and MCF10A CDH1^−/− cell lines were seeded at 600 cells/well and 800 cells/well, respectively. […] At 72 hours post seeding, plates were removed from the incubator and left for 30 minutes at RT to equalise the temperature across all wells of the plates and reduce fluorescence-based edge effects before reading on an EnVision (PerkinElmer) at 550 nm excitation and 590 nm emission to quantify cell viability.
The coRFU values were then used to calculate the normalized readouts of percent of controls (Eq. 3) and the robust Z score (Eqs 4,5), where doxorubicin refers to an EC80 dose and DMSO was 0.2% v/v.3 coPOC=100×(SamplecoRFU−x¯doxorubicincoRFU)/(x¯DMSOcoRFU−x¯doxorubicincoRFU) 4 MAD=median([…]) 5 CorrectedrobustZscore=(SamplecoRFU−platemediancoRFU)/MAD

**Q.** For `COc1ccc2nc(C)cc(NCc3ccc(F)cc3)c2c1` [SLEC-11, N-(4-Fluorobenzyl)-6-methoxy-2-methylquinolin-4-amine], which “Differential at 1-pt” value is on record?
**A.** 17.42
